# In patent US9695155B2, “Herbicidal substituted pyrimidinyloxy benzene compounds” (E. I. DU PONT DE NEMOURS AND COMPANY, priority 2013, dated 2017):
# Tests used:
# [1] = system: corn; experiment: Test C postemergence; assay type: in vivo, Zea mays; settings: Zea mays, post-emergence
# Method in brief: (§1)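 Sown in loam/sand → sprayed pre-emergence; or grown to 1–4 leaves in peat mix → sprayed post-emergence. Same solvent/surfactant formulation both ways. Greenhouse 13–15 d. Score 0–100 visual.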
# [2] = system: Italian ryegrass; experiment: Test C preemergence; assay type: in vivo, Lolium multiflorum; settings: Lolium multiflorum, pre-emergence
# Method in brief: as §1
# [3] = system: ragweed; experiment: Test C preemergence; assay type: in vivo, Ambrosia elatior; settings: Ambrosia artemisiifolia, pre-emergence
# Method in brief: as §1
# [4] = system: wheat; experiment: Test A preemergence; assay type: in vivo, Triticum aestivum
# Method in brief: (§2)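 Visual injury scored 0–100 (100 = complete control) against untreated controls about 10 days after treatment in a greenhouse. Test chemicals, formulated with surfactant in non-phytotoxic solvent, were sprayed on soil preemergence or on 2-10 cm, one- to two-leaf plants postemergence.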
# [5] = system: Heteranthera limosa; experiment: Test B flooded paddy test; assay type: in vivo; settings: Heteranthera limosa, Flood, 250 g ai/ha; 0 to 100 scale where 0 is no effect and 100 is complete control; read-out: Plant response rating, Ducksalad
# Method in brief: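 Greenhouse flooded-pot test: compounds dosed into 3 cm standing water over 2-leaf plants, flood held constant. Rated visually after 13–15 days on 0–100 (complete control = 100); a dash marks no test result.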
# [6] = system: morningglory; experiment: Test A postemergence; assay type: in vivo, Ipomoea spp.; settings: Ipomoea, post-emergence, 240 h
# Method in brief: as §2
# [7] = system: giant foxtail; experiment: Test A postemergence; assay type: in vivo, Setaria faberii; settings: Setaria faberi, post-emergence, 240 h
# Method in brief: as §2
# [8] = system: corn; experiment: Test A postemergence; assay type: in vivo, Zea mays; settings: Zea mays, post-emergence, 240 h
# Method in brief: as §2
# [9] = system: wild oat; experiment: Test C postemergence; assay type: in vivo, Avena fatua; settings: Avena fatua, post-emergence
# Method in brief: as §1
# [10] = system: kochia; experiment: Test C postemergence; assay type: in vivo, Kochia scoparia; settings: Bassia scoparia, post-emergence
# Method in brief: as §1
# [11] = system: morningglory; experiment: Test C postemergence; assay type: in vivo, Ipomoea coccinea; settings: Ipomoea, post-emergence
# Method in brief: as §1
# [12] = system: pigweed; experiment: Test C postemergence; assay type: in vivo, Amaranthus retroflexus; settings: Amaranthus retroflexus, post-emergence
# Method in brief: as §1
# [13] = system: large (Lg) crabgrass; experiment: Test A preemergence; assay type: in vivo, Digitaria sanguinalis; settings: Digitaria sanguinalis, pre-emergence, 240 h
# Method in brief: as §2
# [14] = system: oilseed rape; experiment: Test C preemergence; assay type: in vivo, Brassica napus; settings: Brassica napus, pre-emergence
# Method in brief: as §1
# [15] = system: barnyardgrass; experiment: Test A preemergence; assay type: in vivo, Echinochloa crus-galli; settings: Echinochloa crus-galli, pre-emergence, 240 h
# Method in brief: as §2
# [16] = 125 g ai/ha, 0 to 100 scale where 0 is no effect and 100 is complete control
smiles,measurement,setting,value
"N#Cc1cccc(Oc2ncc(Cl)cn2)c1-n1cc(C(F)(F)F)cn1 [Compound 58, 3-[(5-chloro-2-pyrimidinyl)oxy]-2-[4-(trifluoromethyl)-1H-pyrazol-1-yl]benzonitrile]",plant injury at 125 g/ha,"[1]; 125 g ai/ha, postemergence, read-out: Plant response rating (0 to 100), Corn",25%
same,plant injury at 250 g/ha,"[1]; 250 g ai/ha, postemergence, read-out: Plant response rating (0 to 100), Corn",45%
same,"Corn plant response rating (crop injury, 0 = no effect, 100 = complete kill) at 31 g/ha","[1]; Postemergence, 31 g ai/ha, scale 0 to 100 (0 no effect, 100 complete control), 13 to 15 days",10%
same,"Corn plant response rating (crop injury, 0 = no effect, 100 = complete kill) at 62 g/ha","[1]; Postemergence, 62 g ai/ha, scale 0 to 100 (0 no effect, 100 complete control)",15%
same,pest or weed control at 62 g/ha,"[2]; 62 g ai/ha, preemergence, scale 0 (no effect) to 100 (complete control), read-out: Ryegrass, Italian plant response rating",90%
same,pest or weed control at 125 g/ha,"[2]; 125 g ai/ha, preemergence, scale 0 (no effect) to 100 (complete control), read-out: Ryegrass, Italian plant response rating",90%
same,pest or weed control at 250 g/ha,"[2]; 250 g ai/ha, preemergence, scale 0 (no effect) to 100 (complete control), read-out: Ryegrass, Italian plant response rating",90%
same,pest or weed control at 31 g/ha,"[2]; Preemergence, 31 g ai/ha, scale 0 to 100, 0 no effect, 100 complete control, read-out: Plant response rating, Ryegrass, Italian",90%
same,pest or weed control at 62 g/ha,"[3]; 62 g ai/ha, preemergence, scale 0 (no effect) to 100 (complete control), read-out: Ragweed plant response rating",100%
same,pest or weed control at 125 g/ha,"[3]; 125 g ai/ha, preemergence, scale 0 (no effect) to 100 (complete control), read-out: Ragweed plant response rating",100%
same,pest or weed control at 250 g/ha,"[3]; 250 g ai/ha, preemergence, scale 0 (no effect) to 100 (complete control), read-out: Ragweed plant response rating",100%
same,pest or weed control at 31 g/ha,"[3]; Preemergence, 31 g ai/ha, scale 0 to 100, 0 no effect, 100 complete control, read-out: Plant response rating, Ragweed",85%
same,"Plant response rating, Wheat",[4]; [16],60
same,plant injury at 500 g/ha,"[4]; Triticum aestivum, pre-emergence, 240 h, 500 g ai/ha, 0 to 100 scale, 0 no effect, 100 complete control, approx. 10 days, read-out: Wheat plant response rating",90%
same,pest or weed control at 250 g/ha,[5],90%
same,pest or weed control at 125 g/ha,"[6]; 125 g ai/ha, 0 to 100 scale where 0 is no effect and 100 is complete control, read-out: Plant response rating, Morningglory",100%
same,pest or weed control at 500 g/ha,"[6]; 500 g ai/ha, 0 to 100 scale, 0 no effect, 100 complete control, read-out: Plant response rating Morningglory",100%
same,pest or weed control at 125 g/ha,"[7]; 125 g ai/ha, 0 to 100 scale where 0 is no effect and 100 is complete control, read-out: Plant response rating, Foxtail, Giant",100%
same,pest or weed control at 500 g/ha,"[7]; 500 g ai/ha, 0 to 100 scale, 0 no effect, 100 complete control, read-out: Plant response rating Foxtail, Giant",100%
same,"Corn plant response rating (crop injury, 0 = no effect, 100 = complete kill) at 125 g/ha",[8]; [16],100%
same,plant injury at 500 g/ha,"[8]; 500 g ai/ha, 0 to 100 scale, 0 no effect, 100 complete control, read-out: Plant response rating Corn",100%
same,pest or weed control at 125 g/ha,"[9]; 125 g ai/ha, postemergence, read-out: Plant response rating (0 to 100), Oat, Wild",45%
same,pest or weed control at 250 g/ha,"[9]; 250 g ai/ha, postemergence, read-out: Plant response rating (0 to 100), Oat, Wild",55%
same,pest or weed control at 31 g/ha,"[9]; Postemergence, 31 g ai/ha, scale 0 to 100 (0 no effect, 100 complete control), 13 to 15 days, read-out: Plant response rating, Oat, Wild",35%
same,pest or weed control at 62 g/ha,"[9]; Postemergence, 62 g ai/ha, scale 0 to 100 (0 no effect, 100 complete control), read-out: Plant response rating, Oat, Wild",40%
same,pest or weed control at 125 g/ha,"[10]; 125 g ai/ha, postemergence, read-out: Plant response rating (0 to 100), Kochia",100%
same,pest or weed control at 250 g/ha,"[10]; 250 g ai/ha, postemergence, read-out: Plant response rating (0 to 100), Kochia",100%
same,pest or weed control at 31 g/ha,"[10]; Postemergence, 31 g ai/ha, scale 0 to 100 (0 no effect, 100 complete control), 13 to 15 days, read-out: Plant response rating, Kochia",95%
same,pest or weed control at 62 g/ha,"[10]; Postemergence, 62 g ai/ha, scale 0 to 100 (0 no effect, 100 complete control), read-out: Plant response rating, Kochia",95%
same,pest or weed control at 125 g/ha,"[11]; 125 g ai/ha, postemergence, read-out: Plant response rating (0 to 100), Morningglory",98%
same,pest or weed control at 250 g/ha,"[11]; 250 g ai/ha, postemergence, read-out: Plant response rating (0 to 100), Morningglory",98%
same,pest or weed control at 31 g/ha,"[11]; Postemergence, 31 g ai/ha, scale 0 to 100 (0 no effect, 100 complete control), 13 to 15 days, read-out: Plant response rating, Morningglory",80%
same,pest or weed control at 62 g/ha,"[11]; Postemergence, 62 g ai/ha, scale 0 to 100 (0 no effect, 100 complete control), read-out: Plant response rating, Morningglory",95%
same,pest or weed control at 125 g/ha,"[12]; 125 g ai/ha, postemergence, read-out: Plant response rating (0 to 100), Pigweed",98%
same,pest or weed control at 250 g/ha,"[12]; 250 g ai/ha, postemergence, read-out: Plant response rating (0 to 100), Pigweed",100%
same,pest or weed control at 31 g/ha,"[12]; Postemergence, 31 g ai/ha, scale 0 to 100 (0 no effect, 100 complete control), 13 to 15 days, read-out: Plant response rating, Pigweed",90%
same,pest or weed control at 62 g/ha,"[12]; Postemergence, 62 g ai/ha, scale 0 to 100 (0 no effect, 100 complete control), read-out: Plant response rating, Pigweed",95%
same,pest or weed control at 125 g/ha,"[13]; 125 g ai/ha, 0 to 100 scale where 0 is no effect and 100 is complete control, read-out: Plant response rating, Crabgrass, Large",100%
same,pest or weed control at 500 g/ha,"[13]; 500 g ai/ha, 0 to 100 scale, 0 no effect, 100 complete control, approx. 10 days, read-out: Crabgrass, Large plant response rating",100%
same,plant injury at 62 g/ha,"[14]; 62 g ai/ha, preemergence, scale 0 (no effect) to 100 (complete control), read-out: Oilseed Rape plant response rating",100%
same,plant injury at 125 g/ha,"[14]; 125 g ai/ha, preemergence, scale 0 (no effect) to 100 (complete control), read-out: Oilseed Rape plant response rating",100%
same,plant injury at 250 g/ha,"[14]; 250 g ai/ha, preemergence, scale 0 (no effect) to 100 (complete control), read-out: Oilseed Rape plant response rating",100%
same,plant injury at 31 g/ha,"[14]; Preemergence, 31 g ai/ha, scale 0 to 100, 0 no effect, 100 complete control, read-out: Plant response rating, Oilseed Rape",100%
same,pest or weed control at 125 g/ha,"[15]; 125 g ai/ha, 0 to 100 scale where 0 is no effect and 100 is complete control, read-out: Plant response rating, Barnyardgrass",100%
same,pest or weed control at 500 g/ha,"[15]; 500 g ai/ha, 0 to 100 scale, 0 no effect, 100 complete control, approx. 10 days, read-out: Barnyardgrass plant response rating",100%
